Tests used:
Details in all cases: 48 h
SEM cells [1] = experiment: cell viability relative to DMSO control; higher = less cytotoxic
Method in brief: (§1)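 Viability values are per-plate percentages of DMSO wells, with background from cell-free wells. Library compounds in DMSO were pin-dosed, in an 11-point threefold series from 47 μM to 0.79 nM, onto NOMO1 or SEM (500 cells/well) or P12-Ichikawa (1000 cells/well) leukemia cells in 1536-well plates (5 μl). Those cells had been adapted for at least four passages in each medium, and CellTiter-Glo One luminescence was read after 48 h at 37°C.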

P12-Ichikawa [2] = experiment: as above
Method in brief: as §1

NOMO1 [3] = experiment: as above
Method in brief: as §1

SEM cells [4] = experiment: AUC of viability dose-response curve (% viability x log10 dose units); higher = less sensitive
Method in brief: (§2)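 Seeding of medium-adapted leukemia cells was at 500 or 1000 cells/well in 1536-well plates, followed by 48 h at 37°C with library compounds in DMSO at 11 threefold doses from 47 μM to 0.79 nM. CellTiter-Glo One luminescence was normalised per plate to DMSO and cell-free wells and fitted as a four-parameter log-logistic function of log10 dose. Area under the curve was integrated by trapezoidal rule, with curves exceeding full viability scaled and curves failing quality control removed.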

P12-Ichikawa [5] = experiment: as above
Method in brief: as §2

NOMO1 [6] = experiment: as above
Method in brief: as §2

O=C(Nc1c[nH]nc1-c1nc2cc(CN3CCOCC3)ccc2[nH]1)NC1CC1
cell viability [%]
Details | NOMO1 [3] | P12-Ichikawa [2] | SEM cells [1]
HPLM + 10% dialyzed FBS, 0.000781 µM | 91.3 | 93.4 | 92.3
HPLM + 10% dialyzed FBS, 0.00234 µM | 111 | 101 | 85.9
HPLM + 10% dialyzed FBS, 0.00702 µM | 113 | 101 | 103
HPLM + 10% dialyzed FBS, 0.0211 µM | 95.6 | 97.6 | 87.9
HPLM + 10% dialyzed FBS, 0.0632 µM | 81.1 | 53.8 | 40.6
HPLM + 10% dialyzed FBS, 0.19 µM | 102 | 12.7 | 45.9
HPLM + 10% dialyzed FBS, 0.569 µM | 104 | 23.9 | 26
HPLM + 10% dialyzed FBS, 1.71 µM | 104 | 38.5 | 16
HPLM + 10% dialyzed FBS, 5.12 µM | 97.9 | 51.6 | 6.08
HPLM + 10% dialyzed FBS, 15.4 µM | 51 | 36.5 | 3.77
HPLM + 10% dialyzed FBS, 46.1 µM | 3.89 | 19.3 | 2.78
RPMI 5 mM glucose + 10% FBS, 0.000781 µM | 85.9 | 97 | 96.7
RPMI 5 mM glucose + 10% FBS, 0.00234 µM | 103 | 103 | 90
RPMI 5 mM glucose + 10% FBS, 0.00702 µM | 97.1 | 101 | 107
RPMI 5 mM glucose + 10% FBS, 0.0211 µM | 85.5 | 99.8 | 101
RPMI 5 mM glucose + 10% FBS, 0.0632 µM | 56.3 | 59 | 22.7
RPMI 5 mM glucose + 10% FBS, 0.19 µM | 55.3 | 16 | 22.5
RPMI 5 mM glucose + 10% FBS, 0.569 µM | 78.7 | 38 | 17.1
RPMI 5 mM glucose + 10% FBS, 1.71 µM | 84.9 | 47.3 | 10.4
RPMI 5 mM glucose + 10% FBS, 5.12 µM | 89.4 | 45.1 | 3.98
RPMI 5 mM glucose + 10% FBS, 15.4 µM | 61.2 | 38.6 | 2.18
RPMI 5 mM glucose + 10% FBS, 46.1 µM | 4.23 | 14.1 | 2.92
RPMI 5 mM glucose + 10% dialyzed FBS, 0.000781 µM | 88.3 | 99 | 95.1
RPMI 5 mM glucose + 10% dialyzed FBS, 0.00234 µM | 102 | 98.6 | 93.5
RPMI 5 mM glucose + 10% dialyzed FBS, 0.00702 µM | 92.6 | 91.5 | 110
RPMI 5 mM glucose + 10% dialyzed FBS, 0.0211 µM | 93.7 | 102 | 77.2
RPMI 5 mM glucose + 10% dialyzed FBS, 0.0632 µM | 67.1 | 65.2 | 26.9
RPMI 5 mM glucose + 10% dialyzed FBS, 0.19 µM | 66.7 | 24.8 | 26.8
RPMI 5 mM glucose + 10% dialyzed FBS, 0.569 µM | 84 | 45.8 | 22
RPMI 5 mM glucose + 10% dialyzed FBS, 1.71 µM | 83 | 58.5 | 11.7
RPMI 5 mM glucose + 10% dialyzed FBS, 5.12 µM | 86.7 | 60.2 | 4.09
RPMI 5 mM glucose + 10% dialyzed FBS, 15.4 µM | 54.5 | 46.5 | 2.03
RPMI 5 mM glucose + 10% dialyzed FBS, 46.1 µM | 4.36 | 14.2 | 3.29

AUC of viability dose-response curve
Details | HPLM + 10% dialyzed FBS | RPMI 5 mM glucose + 10% FBS | RPMI 5 mM glucose + 10% dialyzed FBS
P12-Ichikawa [5] | 270 | 282 | 304
SEM cells [4] | 219 | 202 | 199

CC(=O)c1cnc2ccc(-c3cc(Cl)c(O)c(Cl)c3)nc2c1N[C@H]1CC[C@H](CN(C)C)CC1
SEM cells [1], HPLM + 10% dialyzed FBS
Details | cell viability [%]
0.000781 µM | 110
0.00234 µM | 101
0.00702 µM | 105
0.0211 µM | 99.2
0.0632 µM | 63.5
0.19 µM | 25.4
0.569 µM | 16.2
1.71 µM | 6.2
5.12 µM | 6.52
15.4 µM | 5.71
46.1 µM | 6.59

AUC of viability dose-response curve
Details | NOMO1 [6] | P12-Ichikawa [5] | SEM cells [4]
HPLM + 10% dialyzed FBS | 211 | 277 | 218
RPMI 5 mM glucose + 10% FBS | 237 | 256 | 213
RPMI 5 mM glucose + 10% dialyzed FBS | 237 | 253 | 208
